Laboratory results reported in US7145058B2, “Efficient method of preventing growth of microbial genetic transformant after transformation” (Council of Scientific and Industrial Research, priority 2002, dated 2006).

What was measured:
[1] = system: Agrobacterium tumefaciens; assay: Growth curve of Agrobacterium tumefaciens in liquid Yeast Mannitol Broth, optical density at 600 nm; assay type: cell-based; settings: different concentrations of D-catechin of Acacia species
Experimental: The growth of bacteria is measured spectrophotometrically. The variation of growth is measured for up to 48 hours at an interval of 6 hours each.
Two strains of Agrobacterium tumefaciens viz. EHA105 (mild) and GV2260 (virulent) harbouring the antibiotic resistance genes for kanamycin or hygromycin and the reporter gus gene were inoculated from mother cultures of respective strains into 10–30 ml liquid modified Yeast Mannitol Broth with kanamycin or hygromycin. The cultures were incubated for 12–16 hr at 25–30° C. and 150–200 rpm in dark and harvested at 0.6–0.8 optical density at 600 nm for 1×10^9 cells/ml during log phase of bacterial growth. […] Measurement of optical density at 600 nm at regular 6 hr intervals for 0–48 hr and the mean of three readings were plotted for development of the growth curve.
Crude mixture of catechins as well as caffeine at concentrations of 2–600 μg/ml were added to fresh cultures of Agrobacterium tumefaciens and maintained at 25–30° C. in dark at 150–200 rpm for 48 hr. The optical density was again measured at regular interval of 6 hr each for 0–48 hr for the plotting of the mean of the three readings in a linear graph in order to determine the effect of the crude mixture of catechins as well as caffeine at concentrations of 2–600 μg/ml on fresh cultures of Agrobacterium tumefaciens.

Agrobacterium = settings: carbenicillin, cefotaxime, ticarcillin for Brassica, Solanum, Rubus respectively; cited from earlier work
guar tissues = settings: cited from earlier work
[2] = system: A. tumefaciens, supervirulent strain EHA101 (pEHA101/pGT100); settings: 100 μg/ml, singly or in combination, 52 days in regeneration and elongation media; cited from earlier work
[3] = system: cultured tissues of Vitis; settings: cited from earlier work
[4] = system: Sitka spruce somatic embryos; settings: cited from earlier work

SMILES | elimination of residual Agrobacterium (Agrobacterium) | phytotoxicity to guar explants (guar tissues) | elimination of A. tumefaciens from the explants [2] | other results
Oc1cc(O)c2c(c1)OC(c1ccc(O)c(O)c1)C(O)C2 [D-catechin] | – | – | – | growth of Agrobacterium tumefaciens [1]: promote and not inhibit the growth
CC1(C)S[C@@H]2[C@H](NC(=O)C(C(=O)O)c3ccccc3)C(=O)N2[C@H]1C(=O)O (some centres unmarked) [carbenicillin] | none of the antibiotics tested succeeded in eliminating Agrobacterium | phytotoxic | did not eliminate | effect on plant regeneration [3]: inhibitory effects on plant regeneration; development of mature somatic embryos [4]: prevented the development of mature somatic embryos; reduction of early stage embryos [4]: > 90%; reduction of tissue growth [4]: 50%
CO/N=C(\C(=O)N[C@@H]1C(=O)N2C(C(=O)O)=C(COC(C)=O)CS[C@H]12)c1csc(N)n1 [cefotaxime] | none of the antibiotics tested succeeded in eliminating Agrobacterium | phytotoxic | did not eliminate | effect on overall tissue growth [4]: no effect
CO[C@@]1(NC(=O)Cc2cccs2)C(=O)N2C(C(=O)O)=C(COC(N)=O)CS[C@@H]21 [cefoxitin] | – | – | did not eliminate | –
CC1(C)S[C@@H]2[C@H](NC(=O)[C@H](C(=O)O)c3ccsc3)C(=O)N2[C@H]1C(=O)O [ticaracillin, ticarcillin] | none of the antibiotics tested succeeded in eliminating Agrobacterium | – | – | –
